Data taken from US12433865B2, “Compositions comprising PGI2-receptor agonists and processes for the preparation thereof” (Arena Pharmaceuticals, Inc., priority 2018, dated 2025).

Test: Release (dissolution) profile of capsules, USP Apparatus 2 (paddle)
Type: physicochemical
Conditions: 0.04 mg capsule; for Release rate (percentage of Compound 1 released over time): Poloxamer 188:food grade GMS 50:50
Source text: USP Apparatus 2 (Paddle Apparatus) is described, for example, in the United States Pharmacopeial Convention, Feb. 1, 2012, Chapter <711> (“Dissolution”), incorporated by reference herein in its entirety. See http://www.usp.org/sites/default/files/usp_pdf/EN/USPNF/revisions/m99470-gc_711.pdf. The assembly from Apparatus 1 is used, except that a paddle formed from a blade and a shaft is used as the stirring element. The shaft is positioned so that its axis is not more than 2 mm from the vertical axis of the vessel at any point and rotates smoothly without significant wobble that could affect the results. The vertical center line of the blade passes through the axis of the shaft so that the bottom of the blade is flush with the bottom of the shaft. A distance of 25±2 mm between the bottom of the blade and the inside bottom of the vessel is maintained during the test. The metallic or suitably inert, rigid blade and shaft comprise a single entity. A suitable two-part detachable design may be used provided the assembly remains firmly engaged during the test. The paddle blade and shaft may be coated with a suitable coating so as to make them inert. The dosage unit is allowed to sink to the bottom of the vessel before rotation of the blade is started. A small, loose piece of nonreactive material, such as not more than a few turns of wire helix, may be attached to dosage units that would otherwise float. Other validated sinker devices may be used.
Unless otherwise specified, the release profiles for capsules were measured using USP Apparatus 2 (paddle).
All release profiles disclosed in Tables 3c-3p were measured with USP Apparatus 2 (paddle) at 50 rpm in 500 mL of aqueous sodium phosphate at a concentration of 0.05 M (pH=6.8). The values in a given table relate to capsules obtained from the same batch. Values shown represent mean values over a number of dissolution tests (“n” in each table) in each case.

O=C(O)COC[C@H]1CC[C@H](COC(=O)N(c2ccccc2)c2ccc(Cl)cc2)CC1 [Compound 1, 2-(((1r,4r)-4-(((4-chlorophenyl)(phenyl)carbamoyloxy)methyl)cyclohexyl)methoxy)acetic acid]
release profile post-curing (Poloxamer 188:food grade GMS 50:50, cured 18 hours, one week, two weeks and four weeks post-curing (FIG. 6)): remained substantially the same | Release rate (percentage of Compound 1 released over time) (1 wk (40° C.) storage, 30 min): 11.1% | Release rate (percentage of Compound 1 released over time) (1 wk (40° C.) storage, 60 min): 22.6% | Release rate (percentage of Compound 1 released over time) (1 wk (40° C.) storage, 120 min): 40.1% | Release rate (percentage of Compound 1 released over time) (1 wk (40° C.) storage, 180 min): 59.2% | Release rate (percentage of Compound 1 released over time) (1 wk (40° C.) storage, 240 min): 71.8% | Release rate (percentage of Compound 1 released over time) (1 wk (40° C.) storage, 360 min): 88.4% | Release rate (percentage of Compound 1 released over time) (1 wk (40° C.) storage, 480 min): 92.2% | Release rate (percentage of Compound 1 released over time) (1 wk (40° C.) storage, 600 min): 96.2% | Release rate (percentage of Compound 1 released over time) (1 wk (40° C.) storage, 720 min): 95.3% | Release rate (percentage of Compound 1 released over time) (1 wk (40° C.) storage, 735 min): 96.1% | Release rate (percentage of Compound 1 released over time) (2 wks (40° C.) storage, 30 min): 10.8% | Release rate (percentage of Compound 1 released over time) (2 wks (40° C.) storage, 60 min): 18.3% | Release rate (percentage of Compound 1 released over time) (2 wks (40° C.) storage, 120 min): 36.8% | Release rate (percentage of Compound 1 released over time) (2 wks (40° C.) storage, 180 min): 52.9% | Release rate (percentage of Compound 1 released over time) (2 wks (40° C.) storage, 240 min): 67.4% | Release rate (percentage of Compound 1 released over time) (2 wks (40° C.) storage, 360 min): 83.3% | Release rate (percentage of Compound 1 released over time) (2 wks (40° C.) storage, 480 min): 90.3% | Release rate (percentage of Compound 1 released over time) (2 wks (40° C.) storage, 600 min): 93.8% | Release rate (percentage of Compound 1 released over time) (2 wks (40° C.) storage, 720 min): 93.7% | Release rate (percentage of Compound 1 released over time) (2 wks (40° C.) storage, 735 min): 94.3% | Release rate (percentage of Compound 1 released over time) (4 wks (40° C.) storage, 30 min): 7.3% | Release rate (percentage of Compound 1 released over time) (4 wks (40° C.) storage, 60 min): 17.7% | Release rate (percentage of Compound 1 released over time) (4 wks (40° C.) storage, 120 min): 37.4% | Release rate (percentage of Compound 1 released over time) (4 wks (40° C.) storage, 180 min): 54.6% | Release rate (percentage of Compound 1 released over time) (4 wks (40° C.) storage, 240 min): 70.3% | Release rate (percentage of Compound 1 released over time) (4 wks (40° C.) storage, 360 min): 87.5% | Release rate (percentage of Compound 1 released over time) (4 wks (40° C.) storage, 480 min): 90,9% | Release rate (percentage of Compound 1 released over time) (4 wks (40° C.) storage, 600 min): 93.2% | Release rate (percentage of Compound 1 released over time) (4 wks (40° C.) storage, 720 min): 95.0% | Release rate (percentage of Compound 1 released over time) (4 wks (40° C.) storage, 735 min): 94.3% | Release rate (percentage of Compound 1 released over time) (18 hrs (50° C.) curing, 30 min): 14.3% | Release rate (percentage of Compound 1 released over time) (18 hrs (50° C.) curing, 60 min): 21.8% | Release rate (percentage of Compound 1 released over time) (18 hrs (50° C.) curing, 120 min): 39.9% | Release rate (percentage of Compound 1 released over time) (18 hrs (50° C.) curing, 180 min): 56.3% | Release rate (percentage of Compound 1 released over time) (18 hrs (50° C.) curing, 240 min): 72.6% | Release rate (percentage of Compound 1 released over time) (18 hrs (50° C.) curing, 360 min): 89.2% | Release rate (percentage of Compound 1 released over time) (18 hrs (50° C.) curing, 480 min): 93.5% | Release rate (percentage of Compound 1 released over time) (18 hrs (50° C.) curing, 600 min): 95.7% | Release rate (percentage of Compound 1 released over time) (18 hrs (50° C.) curing, 720 min): 96.9% | Release rate (percentage of Compound 1 released over time) (18 hrs (50° C.) curing, 735 min): 95.6% | Release rate (percentage of Compound 1 released over time) (T = 0 (pre-curing), 30 min): 11.0% | Release rate (percentage of Compound 1 released over time) (T = 0 (pre-curing), 60 min): 18.3% | Release rate (percentage of Compound 1 released over time) (T = 0 (pre-curing), 120 min): 30.1% | Release rate (percentage of Compound 1 released over time) (T = 0 (pre-curing), 180 min): 39.6% | Release rate (percentage of Compound 1 released over time) (T = 0 (pre-curing), 240 min): 48.8% | Release rate (percentage of Compound 1 released over time) (T = 0 (pre-curing), 360 min): 64.1%
